From US20200129473A1, “USE OF ERIBULIN AND CYCLIN DEPENDENT KINASE INHIBITORS IN THE TREATMENT OF CANCER” (EISAI R&D MANAGEMENT CO., LTD., priority 2017, published 2020)
pIC50: −log10 of the molar value. Where two headings read alike, the source gives them in different places.

Columns and labels:
[1] = tested on: MCF-7 human breast cancer cells; experiment: Cell Titer-Glo growth inhibition, MCF-7; type: cell-based
[2] = tested on: T-47D human breast cancer cells; experiment: Cell Titer-Glo growth inhibition, T-47D; type: cell-based; conditions: T47D
[3] = tested on: ZR-75-1 human breast cancer cells; experiment: Cell Titer-Glo growth inhibition, ZR-75-1; type: cell-based
[4] = tested on: MDA-MB-134-VI human breast cancer cells; experiment: Cell Titer-Glo growth inhibition, MDA-MB-134VI; type: cell-based
[5] = tested on: MDA-MB-175-VII human breast cancer cells; experiment: Cell Titer-Glo growth inhibition, MDA-MB-175VII; type: cell-based
[6] = tested on: MDA-MB-415 human mammary gland/breast cancer cells; experiment: Cell Titer-Glo growth inhibition, MDA-MB-415; type: cell-based
[7] = tested on: MDA-MB-231 human breast cancer cells; experiment: Cell Titer-Glo growth inhibition, MDA-MB-231; type: cell-based
[8] = tested on: HCC70 human breast cancer cells; experiment: Cell Titer-Glo growth inhibition, HCC70; type: cell-based
[9] = tested on: HCC1806 human breast cancer cells; experiment: Cell Titer-Glo growth inhibition, HCC1806; type: cell-based
[10] = tested on: BT-549 human breast cancer cells; experiment: Cell Titer-Glo growth inhibition, BT-549; type: cell-based
[11] = tested on: Hs578t human breast cancer cells; experiment: Cell Titer-Glo growth inhibition, Hs578t; type: cell-based; conditions: Hs-578T
[12] = tested on: MDA-MB-436 human adenocarcinoma derived cancer cells; experiment: Cell Titer-Glo growth inhibition, MDA-MB-436; type: cell-based
[13] = tested on: panel of 12 human breast cancer cell lines; experiment: Cell Titer-Glo growth inhibition, statements for the whole panel
Procedure: MCF-7 human breast cancer cells were cultured in RPMI 1640 medium supplemented with 10% fetal bovine serum (FBS), 2 mM glutamine, 10 mM 4-(2-hydroxyethyl)-1-piperazineethanesulfonic acid (HEPES), 0.075% sodium bicarbonate, 100 units/mL sodium penicillin G, 100 μg/mL streptomycin sulfate and 25 μg/mL gentamicin. T-47D human breast cancer cells were cultured in RPMI 1640 medium supplemented with 10% FBS, 4.5 g/L glucose, 2 mM glutamine, 10 mM HEPES, 0.2 units/mL Insulin, 1 mM sodium pyruvate, 100 units/mL sodium penicillin G, 100 μg/mL streptomycin sulfate and 25 μg/mL gentamicin. ZR-75-1 human breast cancer cells were cultured in RPMI 1640 medium supplemented with 10% FBS, 4.5 g/L glucose, 2 mM glutamine, 10 mM HEPES, 1 mM sodium pyruvate, 100 units/mL sodium penicillin G, 100 μg/mL streptomycin sulfate and 25 μg/mL gentamicin. MDA-MB-134-VI human breast cancer cells were cultured in Leibovitz's L-15 medium supplemented with 20% FBS, 2 mM glutamine, 100 units/mL sodium penicillin G, 100 μg/mL streptomycin sulfate and 25 μg/mL gentamicin. MDA-MB-175-VII human breast cancer cells were cultured in Leibovitz's L-15 medium supplemented with 10% FBS, 2 mM glutamine, 10 mM HEPES, 100 units/mL sodium penicillin G, 100 μg/mL streptomycin sulfate and 25 μg/mL gentamicin. […]

[14] = tested on: OD-BRE-0745, an ER+, PR+, Her2− luminal B infiltrating ductal adenocarcinoma (patient-derived breast tumor); experiment: Antitumor activity in OD-BRE-0745 PDX model; type: in vivo, Swiss nude mice; conditions: 150 mg/kg palbociclib, contribution of eribulin masked (FIGS. 10 and 12)
Procedure: A statistical test (analysis of variance) was performed to test for homogeneity between groups.

[15] = 72 h, read-out: Mean IC50, single agent Eribulin

With C=C1C[C@@H]2CC[C@@]34C[C@H]5O[C@H]6[C@@H](O3)[C@H]3O[C@H](CC[C@@H]3O[C@H]6[C@H]5O4)CC(=O)C[C@@H]3[C@@H](OC)[C@@H](C[C@H](O)CN)O[C@H]3C[C@H]3O[C@@H](CC[C@@H]1O2)C[C@@H](C)C3=C [Eribulin] the pIC50 ([1]; MCF7, 72 h, read-out: Mean IC50, single agent Eribulin) was 9.60, the pIC50 ([1]; MCF7, read-out: Mean IC50 of eribulin dose response with constant 1 μM Palbociclib) was 9.22 and the pIC50 [2, 15] was 9.73. It also gave a pIC50 ([3]; ZR-75-1, 72 h, read-out: Mean IC50, single agent Eribulin) of less than 6.00, a pIC50 ([4]; MDA-MB-134-VI, 72 h, read-out: Mean IC50, single agent Eribulin) of 9.31 and a pIC50 ([4]; MDA-MB-134-VI, read-out: Mean IC50 of eribulin dose response with constant 1 μM Palbociclib) of 7.68. The pIC50 ([5]; Homo sapiens, MDA-MB-175-VII, 72 h, 72 h drug exposure, read-out: Mean IC50, single agent Eribulin) was 9.92, the pIC50 ([5]; Homo sapiens, MDA-MB-175-VII, eribulin 3.8 pM to 1 μM, constant 10 μM palbociclib, read-out: Mean IC50 of eribulin dose response with constant 10 μM Palbociclib) was 7.03 and the pIC50 ([5]; eribulin 3.8 pM to 1 μM, constant 10 μM palbociclib, listed as Eribufin, read-out: Mean IC50 of eribulin dose response with constant 10 μM Palbociclib) was 7.04. The pIC50 ([6]; MDA-MB-415, 72 h, read-out: Mean IC50, single agent Eribulin) was 9.39, the pIC50 ([7]; MDA-MB-231, 72 h, read-out: Mean IC50, single agent Eribulin) was 9.83 and the pIC50 ([7]; MDA-MB-231, read-out: Mean IC50 of eribulin dose response with constant 1 μM Palbociclib) was 8.84. It also gave a pIC50 ([8]; HCC70, 72 h, read-out: Mean IC50, single agent Eribulin) of 9.34, a pIC50 ([8]; HCC70, read-out: Mean IC50 of eribulin dose response with constant 1 μM Palbociclib) of 9.42 and a pIC50 ([8]; HCC70, read-out: Mean IC50 of eribulin dose response with constant 10 μM Palbociclib) of 7.67. The pIC50 ([9]; HCC1806, 72 h, read-out: Mean IC50, single agent Eribulin) was 9.85, the pIC50 ([9]; HCC1806, read-out: Mean IC50 of eribulin dose response with constant 1 μM Palbociclib) was 9.56 and the pIC50 ([10]; BT-549, 72 h, read-out: Mean IC50, single agent Eribulin) was 9.54. The pIC50 ([10]; BT-549, read-out: Mean IC50 of eribulin dose response with constant 1 μM Palbociclib) was 9.43, the pIC50 ([10]; BT-549, read-out: Mean IC50 of eribulin dose response with constant 10 μM Palbociclib) was 9.07 and the pIC50 [11, 15] was 9.45. The pIC50 ([11]; read-out: Mean IC50 of eribulin dose response with constant 1 μM Palbociclib) was 7.84, the pIC50 ([11]; read-out: Mean IC50 of eribulin dose response with constant 10 μM Palbociclib) was 9.10 and the pIC50 ([12]; MDA-MB-436, 72 h, read-out: Mean IC50, single agent Eribulin) was 9.07. The pIC50 ([12]; MDA-MB-436, read-out: Mean IC50 of eribulin dose response with constant 1 μM Palbociclib) was 8.69, the pIC50 ([12]; MDA-MB-436, read-out: Mean IC50 of eribulin dose response with constant 10 μM Palbociclib) was 8.20 and the pIC50 ([13]; Homo sapiens, read-out: IC50, single agent, overall statement) was greater than 9.00. For the same compound, the “Potentiation of eribulin growth inhibition by palbociclib” value ([13]; all cell lines, constant dose of 10 μM or 1 μM of palbociclib) was “No potentiation effect”.

Compound CC(=O)c1c(C)c2cnc(Nc3ccc(N4CCNCC4)cn3)nc2n(C2CCCC2)c1=O [Palbociclib, 6-acetyl-8-cyclopentyl-5-methyl-2-[(5-piperazin-1-ylpyridin-2-yl)amino]pyrido[2,3-d]pyrimidin-7-one] has a pIC50 ([1]; MCF7, MCF-7, 72 h drug exposure, read-out: Mean IC50, single agent Palbociclib) of less than 5.00, a pIC50 ([2]; T-47D, 72 h drug exposure, read-out: Mean IC50, single agent Palbociclib) of less than 5.00 and a pIC50 ([3]; ZR-75-1, 72 h drug exposure, read-out: Mean IC50, single agent Palbociclib) of less than 5.00. It also gave a pIC50 ([4]; MDA-MB-134VI, 72 h drug exposure, read-out: Mean IC50, single agent Palbociclib) of 5.61, a pIC50 ([6]; MDA-MB-415, 72 h drug exposure, read-out: Mean IC50, single agent Palbociclib) of 5.79 and a pIC50 ([7]; MDA-MB-231, 72 h drug exposure, read-out: Mean IC50, single agent Palbociclib) of 6.41. The pIC50 ([8]; HCC70, 72 h drug exposure, read-out: Mean IC50, single agent Palbociclib) was less than 5.00, the pIC50 ([9]; HCC1806, 72 h drug exposure, read-out: Mean IC50, single agent Palbociclib) was less than 5.00 and the pIC50 ([10]; BT-549, 72 h drug exposure, read-out: Mean IC50, single agent Palbociclib) was less than 5.00. The pIC50 ([11]; Hs578t, 72 h drug exposure, read-out: Mean IC50, single agent Palbociclib) was less than 5.00, the pIC50 ([12]; MDA-MB-436, 72 h drug exposure, read-out: Mean IC50, single agent Palbociclib) was 5.52 and the “Tumor response at the higher amount of palbociclib” value [14] was “overwhelmed the response”.
